Measured values from patent US20240376097A1, “BCL-2 Inhibitor” (BeiGene Ltd., priority 2020, published 2024).
Read-outs that look alike come from different tables or passages of the source.

Legend:
Format in all cases: binding
[1] = biological target: Recombinant human Bcl-2 protein (Homo sapiens (Human), UniProt P10415); assay: Bcl-2 TR-FRET Assay
Protocol: Biological Example: Bcl-2 TR-FRET Assay
Compounds disclosed herein were tested for blocking of Bcl-2 protein with its ligand in an assay based on Time-Resolved Fluorescence Resonance Energy Transfer (TR-FRET) methodology. Recombinant human 0.05 nM Bcl-2 protein was pre-incubated with a serial dilution of compounds disclosed herein (top final concentration is 1 uM or 0.1 uM or 0.02 uM or 0.01 uM, 10 points) at room temperature for 0.5 hour in an assay buffer containing 20 mM potassium phosphate buffer, pH 7.5, 50 mM NaCl. 1 mM EDTA, 0.05% Tween-20, 0.01% BSA. Then the FITC labeled Bak peptide Ac-GQVGRQLAIIGDK(FITC)INR-amide (0.5 nM) and MAb Anti 6His Tb cryptate Gold were added to plate and further incubated at room temperature for 1 hour. The TR-FRET signals (337 nm-520 nm-490 nm) were read on BMG PHERAstar FSX instrument. The inhibition percentage of Bcl-2 interaction with its ligand in presence of increasing concentrations of compounds was calculated based on the TR-FRET signals. The IC50 for each compound was derived from fitting the data to the four-parameter logistic equation by Graphpad Prism software or Dotmatics.

[2] = biological target: recombinant human Bcl-2-G101V protein (Homo sapiens (Human), UniProt P10415, G101V); assay: Bcl-2-G101V TR-FRET Assay; conditions: Bcl-2 G101V mutant, TR-FRET; read-out: Biochemical assay (IC50, nM) Bcl-2 G101V
Protocol: (§1) Biological Example: Bcl-2-G101V TR-FRET Assay
(§2) […]. The TR-FRET signals (ex337 nm, em490 nm/520 nm) were read on BMG PHERAstar FSX instrument. The inhibition percentage of Bcl-2-G101V interaction with its ligand in presence of increasing concentrations of compounds was calculated based on the ratio of fluorescence at 490 nm to that at 520 nm. The IC50 for each compound was derived from fitting the data to the four-parameter logistic equation by Graphpad Prism software or Dotmatics.

[3] = tested on: recombinant human Bcl-2-G101V protein; assay: Bcl-2-G101V TR-FRET Assay; conditions: for Ratio of Bcl-2 G101V/WT: ratio of biochemical IC50 Bcl-2 G101V / Bcl-2 WT
Protocol: as §1, §2

[4] = biological target: recombinant human Bcl-2 D103Y protein (Homo sapiens (Human), UniProt P10415, D103Y); assay: Bcl-2-D103Y Biochemical Assay (TR-FRET); conditions: for IC50: TR-FRET, FITC labeled Bak peptide; for Ratio of Bcl-2 D103Y/Bcl-2 WT: ratio of IC50
Protocol: Biological Example: Bcl-2-D103Y Biochemical Assay
as §2, with “Bcl-2 D103Y” for “Bcl-2-G101V”, “by” for “by Graphpad Prism software or”

[5] = Bcl-2 wild type, TR-FRET, read-out: Biochemical assay (IC50, nM) Bcl-2 WT
[6] = wild type Bcl-2, unit inferred, read-out: Bcl-2 WT

SMILES	Ratio of Bcl-2 G101V/WT [3]	IC50 [1, 6] [nM]	IC50 [4] [nM]	Ratio of Bcl-2 D103Y/Bcl-2 WT [4]	other results
CC(C)c1ccccc1[C@H]1CN(C(C)C)CCN1C1CC2(CCN(c3ccc(C(=O)NS(=O)(=O)c4ccc(NC[C@H]5CC[C@](C)(O)CC5)c([N+](=O)[O-])c4)c(Oc4cnc5[nH]ccc5c4)c3)CC2)C1 (single isomer, unassigned) [Example 3b, 2-((1H-pyrrolo[2,3-b]pyridin-5-yl)oxy)-N-((4-((((1r,4r)-4-hydroxy-4-methylcyclohexyl)methyl)amino)-3-nitrophenyl)sulfonyl)-4-(2-((R or S)-4-isopropyl-2-(2-isopropylphenyl)piperazin-1-yl)-7-azaspiro[3.5]nonan-7-yl)benzamide]	16.9				IC50 [1, 5]: 0.0083 nM; IC50 [2]: 0.14 nM
CC(C)c1ccccc1C1CN(C2COC2)CCN1C1CC2(CCN(c3ccc(C(=O)NS(=O)(=O)c4ccc(NC[C@H]5CC[C@](C)(O)CC5)c([N+](=O)[O-])c4)c(Oc4cnc5[nH]ccc5c4)c3)CC2)C1 (single isomer, unassigned) [Example 6a, 2-((1H-pyrrolo[2,3-b]pyridin-5-yl)oxy)-N-((4-((((1r,4r)-4-hydroxy-4-methylcyclohexyl)methyl)amino)-3-nitrophenyl)sulfonyl)-4-(2-((S or R)-2-(2-isopropylphenyl)-4-(oxetan-3-yl)piperazin-1-yl)-7-azaspiro[3.5]nonan-7-yl)benzamide]		0.0078	0.11		
CC(C)c1ccccc1[C@H]1CN(C2COC2)CCN1C1CC2(CCN(c3ccc(C(=O)NS(=O)(=O)c4ccc(NC[C@H]5CC[C@](C)(O)CC5)c([N+](=O)[O-])c4)c(Oc4cnc5[nH]ccc5c4)c3)CC2)C1 (single isomer, unassigned) [Example 6a, 2-((1H-pyrrolo[2,3-b]pyridin-5-yl)oxy)-N-((4-((((1r,4r)-4-hydroxy-4-methylcyclohexyl)methyl)amino)-3-nitrophenyl)sulfonyl)-4-(2-((S or R)-2-(2-isopropylphenyl)-4-(oxetan-3-yl)piperazin-1-yl)-7-azaspiro[3.5]nonan-7-yl)benzamide]				13	
CC(C)c1ccccc1[C@@H]1CN(Cc2cnn(C)c2)CCN1C1CC2(CCN(c3ccc(C(=O)NS(=O)(=O)c4ccc(NC[C@H]5CC[C@](C)(O)CC5)c([N+](=O)[O-])c4)c(Oc4cnc5[nH]ccc5c4)c3)CC2)C1 (single isomer, unassigned) [Example 22a, 2-((1H-pyrrolo[2,3-b]pyridin-5-yl)oxy)-N-((4-((((1r,4r)-4-hydroxy-4-methylcyclohexyl)methyl)amino)-3-nitrophenyl)sulfonyl)-4-(2-((R or S)-2-(2-isopropylphenyl)-4-((1-methyl-1H-pyrazol-4-yl)methyl)piperazin-1-yl)-7-azaspiro [3.5]nonan-7-yl)benzamide]	8.1			5.2	ratio of Bcl-2 D103Y/Bcl-2 wt, compared with F91b in WO2019210828 ([4]; comparison in words): significantly lower
COc1ccc(CN2CCN(C3CC4(CCN(c5ccc(C(=O)NS(=O)(=O)c6ccc(NC[C@H]7CC[C@](C)(O)CC7)c([N+](=O)[O-])c6)c(Oc6cnc7[nH]cc(F)c7c6)c5)CC4)C3)[C@H](c3ccccc3C(C)C)C2)cc1 (single isomer, unassigned) [Example 95, 2-((3-fluoro-1H-pyrrolo[2,3-b]pyridin-5-yl)oxy)-N-((4-((((1r,4r)-4-hydroxy-4-methylcyclohexyl)methyl)amino)-3-nitrophenyl)sulfonyl)-4-(2-((R or S)-2-(2-isopropylphenyl)-4-(4-methoxybenzyl)piperazin-1-yl)-7-azaspiro[3.5]nonan-7-yl) benzamide]	1.7				IC50 [1, 5]: 0.23 nM; IC50 [2]: 0.38 nM
CC(C)c1ccccc1C1CN(C(C)C)CCN1C1CC2(CCN(c3ccc(C(=O)NS(=O)(=O)c4ccc(NC[C@H]5CC[C@](C)(O)CC5)c([N+](=O)[O-])c4)c(Oc4cnc5[nH]ccc5c4)c3)CC2)C1 (stereo partly shown) [Example 3, 2-((1H-pyrrolo[2,3-b]pyridin-5-yl)oxy)-N-((4-((((1r,4r)-4-hydroxy-4-methylcyclohexyl)methyl)amino)-3-nitrophenyl)sulfonyl)-4-(2-(4-isopropyl-2-(2-isopropylphenyl)piperazin-1-yl)-7-azaspiro[3.5]nonan-7-yl)benzamide]		0.019	0.11	11	
CC(C)c1ccccc1C1CN(C2CCOC2)CCN1C1CC2(CCN(c3ccc(C(=O)NS(=O)(=O)c4ccc(NC[C@H]5CC[C@](C)(O)CC5)c([N+](=O)[O-])c4)c(Oc4cnc5[nH]ccc5c4)c3)CC2)C1 (stereo partly shown) [Example 8, 2-((1H-pyrrolo[2,3-b]pyridin-5-yl)oxy)-N-((4-((((1r,4r)-4-hydroxy-4-methylcyclohexyl)methyl)amino)-3-nitrophenyl)sulfonyl)-4-(2-(2-(2-isopropylphenyl)-4-(tetrahydrofuran-3-yl)piperazin-1-yl)-7-azaspiro[3.5]nonan-7-yl)benzamide]	16.0				IC50 [1, 5]: 0.02 nM; IC50 [2]: 0.32 nM
COc1ccc(C(=O)N2CCN(C3CC4(CCN(c5ccc(C(=O)NS(=O)(=O)c6ccc(NC[C@H]7CC[C@](C)(O)CC7)c([N+](=O)[O-])c6)c(Oc6cnc7[nH]ccc7c6)c5)CC4)C3)C(c3ccccc3C(C)C)C2)cc1 (stereo partly shown) [Example 61, 2-((1H-pyrrolo[2,3-b]pyridin-5-yl)oxy)-N-((4-((((1r,4r)-4-hydroxy-4-methylcyclohexyl)methyl)amino)-3-nitrophenyl)sulfonyl)-4-(2-(2-(2-isopropylphenyl)-4-(4-methoxybenzoyl)piperazin-1-yl)-7-azaspiro[3.5]nonan-7-yl) benzamide]					ratio of IC50 of Bcl-2 G101V/Bcl-2 wt, compared with Example F132b in WO2019210828 and ABT-199 (venetoclax) ([3]; comparison in words): much lower
CC(C)c1ccccc1C1CN(Cc2ccc3occc3c2)CCN1C1CC2(CCN(c3ccc(C(=O)NS(=O)(=O)c4ccc(NC[C@H]5CC[C@](C)(O)CC5)c([N+](=O)[O-])c4)c(Oc4cnc5[nH]ccc5c4)c3)CC2)C1 (stereo partly shown) [Example 96, 2-((1H-pyrrolo[2,3-b]pyridin-5-yl)oxy)-4-(2-(4-(benzofuran-5-ylmethyl)-2-(2-isopropylphenyl)piperazin-1-yl)-7-azaspiro[3.5]nonan-7-yl)-N-((4-((((1r,4r)-4-hydroxy-4-methylcyclohexyl)methyl)amino)-3-nitrophenyl)sulfonyl)benzamide]		0.041	0.23	5.6	
COc1ccc(N(C)C2CCN(C3CC4(CCN(c5ccc(C(=O)NS(=O)(=O)c6ccc(NC[C@H]7CC[C@](C)(O)CC7)c([N+](=O)[O-])c6)c(Oc6cnc7[nH]ccc7c6)c5)CC4)C3)C(c3ccccc3C(C)C)C2)cc1 (stereo partly shown) [Example 150]		0.13	0.53	4.1	
COc1ccc(CN2CCN(C3CC4(C3)CN(c3ccc(C(=O)NS(=O)(=O)c5ccc(NC[C@H]6CC[C@](C)(O)CC6)c([N+](=O)[O-])c5)c(Oc5cnc6[nH]cc(Cl)c6c5)c3)C4)[C@H](c3ccccc3C(C)C)C2)cc1 [Example 207, 2-((3-chloro-1H-pyrrolo[2,3-b]pyridin-5-yl)oxy)-N-((4-((((1r,4r)-4-hydroxy-4-methylcyclohexyl)methyl)amino)-3-nitrophenyl)sulfonyl)-4-(6-((R)-2-(2-isopropylphenyl)-4-(4-methoxybenzyl)piperazin-1-yl)-2-azaspiro[3.3]heptan-2-yl) benzamide]		0.2	0.22	1.1	
COc1ccc(CN2CCN(C3CC4(CCN(c5ccc(C(=O)NS(=O)(=O)c6ccc(NCC7CCC(CO)O7)c([N+](=O)[O-])c6)c(Oc6cnc7[nH]ccc7c6)c5)CC4)C3)[C@H](c3ccccc3C(C)C)C2)cc1 (stereo partly drawn) [Example 220, 2-((1H-pyrrolo[2,3-b]pyridin-5-yl)oxy)-N-((4-(((5-(hydroxymethyl)tetrahydrofuran-2-yl)methyl)amino)-3-nitrophenyl)sulfonyl)-4-(2-((R)-2-(2-isopropylphenyl)-4-(4-methoxybenzyl)piperazin-1-yl)-7-azaspiro[3.5]nonan-7-yl) benzamide]		0.044	0.077	1.8	
